Data published in the Bradley open melting point set (2014).
Values joined by “and” are separate entries in the source; they are usually repeats but may differ in a detail not shown here. Equal entries are not always repeated.

Row | melting point | Compound
1 | 230 °C | O=C(O)c1ccccc1C(=O)O [phthalic acid]
2 | 100 °C | COC(=O)c1ccccc1C(N)=O [phthalic_acid,_methylester_amide]
3 | 210 °C | O=C(O)c1ccccc1C(=O)O [phthalic_acid]
4 | 234 °C | O=C1NC(=O)c2ccccc21 [phthalimide]
5 | 233 °C | O=C(O)c1ccc2c(c1)OCO2 [piperonylic acid]
6 | 136 °C | O=C(C1CCCCC1)N1CC(=O)N2CCc3ccccc3C2C1 (centres undefined) [praziquantel]
7 | 198 °C | CCCN(CCC)S(=O)(=O)c1ccc(C(=O)O)cc1 [probenecid]
8 | 96 °C | CCCOC(=O)c1ccc(O)cc1 [propyl 4-hydroxybenzoate]
9 | 96 °C | CCCOC(=O)c1ccc(O)cc1 [propyl p-hydroxybenzoate]
10 | 97 °C and 96.5 °C (2×) and 96 °C | CCCOC(=O)c1ccc(O)cc1 [propyl paraben]
11 | 97 °C | CCCOC(=O)c1ccc(O)cc1 [propylparaben] [listing 1 of 2 here]
12 | 96.5 °C | CCCOC(=O)c1ccc(O)cc1 [propylparaben] [listing 2 of 2 here]
13 | 283 °C | O=C(O)c1cc(C(=O)O)c(C(=O)O)cc1C(=O)O [pyromellitic acid]
14 | 158 °C | O=C(O)c1ccc2ccccc2n1 [quinaldic acid]
15 | 70 °C | O=Cc1cnc2ccccc2c1 [quinoline-3-carboxaldehyde]
16 | 97 °C | N/N=C/c1ccccc1O [salicylaldehyde hydrazone]
17 | 158 °C and 157 °C | O=C(O)c1ccccc1O [salicylic acid]
18 | 160 °C | O=C(O)c1ccccc1O [salicylic_acid]
19 | 51 °C | Oc1ccccc1C=Nc1ccccc1 [salicylideneaniline]
20 | 128 °C | CC1=C(C)C(=O)C(C(CCCCCC(=O)O)c2ccccc2)=C(C)C1=O (centres undefined) [seratrodast]
21 | 126 °C | C(=Cc1ccccc1)c1ccccc1 [stilbene]
22 | 183 °C | CC(=O)NS(=O)(=O)c1ccc(N)cc1 [sulfacetamide] [listing 1 of 2 here]
23 | 182 °C | CC(=O)NS(=O)(=O)c1ccc(N)cc1 [sulfacetamide] [listing 2 of 2 here]
24 | 270 °C and 275 °C | O=C1CCC(N2C(=O)c3ccccc3C2=O)C(=O)N1 (centres undefined) [thalidomide] [listing 2 of 2 here]
25 | 116 °C | NC(=S)c1ccccc1 [thiobenzamide]

The remaining lines, values behind:

Row | Compound | melting point
26 | CCCCC1C(=O)N(c2ccccc2)N(c2ccccc2)C1=O [phenylbutazone] | 107 °C
27 | O=[PH](O)c1ccccc1 [phenylphosphinic acid] | 84 °C
28 | CC(C)(O)C(C)(C)O [pinacol, anhydrous] | 44 °C
29 | CCC1(CC)C(=O)CCNC1=O [piperidione] | 102 °C
30 | O=Cc1ccc2c(c1)OCO2 [piperonal] | 37 °C
31 | O=C(CCBr)N1CCN(C(=O)CCBr)CC1 [pipobroman] | 106 °C
32 | CC=C1CCC2C3CCC4CC(OC(C)=O)CCC4(C)C3CCC12C (centres undefined) [pregn-17-en-3-yl acetate] | 119 °C
33 | CN1CCN(CCCN2c3ccccc3Sc3ccc(Cl)cc32)CC1 [prochlorperazine] | 228 °C
34 | CC(CN1c2ccccc2Sc2ccccc21)N(C)C (centres undefined) [promethazine] | 60 °C
35 | CCC(=O)O [propanoic acid] | -20.7 °C
36 | CCC(=O)O [propanoic_acid] | -21 °C
37 | CCC(=O)O [propionic acid] | -21 °C
38 | CCC(=O)c1ccccc1 [propiophenone] | 19 °C
39 | CNC(=O)Oc1ccccc1OC(C)C [propoxur] | 91.5 °C
40 | CCC(=O)O[C@](Cc1ccccc1)(c1ccccc1)[C@H](C)CN(C)C [propoxyphene] | 75.5 °C
41 | CCCOC(C)=O [propyl_acetate] | -95 °C
42 | CC1CO1 (centres undefined) [propylene oxide] | -112 °C
43 | NC(=O)c1cnccn1 [pyrazinamide] | 190 °C and 189 °C
44 | c1cc2ccc3cccc4ccc(c1)c2c34 [pyrene] | 156 °C
45 | [O-][n+]1ccccc1 [pyridine n-oxide] | 64 °C
46 | O=Cc1cccnc1 [pyridine-3-carboxaldehyde] | 8 °C
47 | c1ccncc1 [pyridine] | -42 °C
48 | C1CCNC1 [pyrrolidine] | -63 °C
49 | Oc1ccc(/C=C/c2cc(O)cc(O)c2)cc1 [resveratrol] | 254 °C
50 | CC1=C(/C=C/C(C)=C/C=C/C(C)=C/C(=O)O)C(C)(C)CCC1 [retinoic acid] | 181 °C
51 | O=C(O)CCCCCCCCC(=O)O [sebacic acid] | 133 °C
52 | CCC(C)(C)C(=O)O[C@H]1C[C@@H](C)C=C2C=C[C@H](C)[C@H](CC[C@@H]3C[C@@H](O)CC(=O)O3)[C@H]21 [simvastatin] | 136 °C

Row | Compound | melting point
53 | CC(=O)S[C@@H]1CC2=CC(=O)CC[C@]2(C)[C@H]2CC[C@@]3(C)[C@@H](CC[C@@]34CCC(=O)O4)[C@H]12 [spironolactone] | 134 °C
54 | CCCCCCCCCCCCCCCCCC(=O)O [stearic acid] | 71 °C
55 | O=C(O)CCCCCCC(=O)O [suberic acid] | 143 °C
56 | O=C(O)CCC(=O)O [succinic acid] | 188 °C and 187 °C
57 | O=C(O)CCC(=O)O [succinic_acid] | 188 °C
58 | N#CCCC#N [succinonitrile] | 56 °C
59 | Nc1ccc(S(=O)(=O)Nc2ncccn2)cc1 [sulfadiazine] | 255 °C
60 | Cc1ccnc(NS(=O)(=O)c2ccc(N)cc2)n1 [sulfamerazine] [listing 1 of 2 here] | 236 °C
61 | Cc1ccnc(NS(=O)(=O)c2ccc(N)cc2)n1 [sulfamerazine] [listing 2 of 2 here] | 234 °C
62 | NS(N)(=O)=O [sulfamide] | 92 °C
63 | Nc1ccc(S(=O)(=O)Nc2ccccn2)cc1 [sulfapyridine] | 192 °C
64 | N#Cc1ccc(C#N)cc1 [terephthalonitrile] | 226 °C
65 | CC(C)(C)OO [tert-Butyl hydroperoxide] | -3 °C
66 | CC(C)(C)O [tert-butyl alcohol, anhydrous] | 25 °C
67 | CC(C)(C)N [tert-butylamine] | -67 °C
68 | O=C5\C=C4/C(C3CCC2(C(CCC2OC(=O)c1ccccc1)C3CC4)C)(C)CC5 (centres undefined) [testosterone benzoate] | 195 °C
69 | O=C4\C=C2/[C@]([C@H]1CC[C@@]3([C@@H](O)CC[C@H]3[C@@H]1CC2)C)(C)CC4 [testosterone] | 155 °C and 154 °C
70 | Oc1c(Br)c(Br)c(O)c(Br)c1Br [tetrabromohydroquinone] | 244 °C
71 | C1CCOC1 [tetrahydrofuran] | -108 °C
72 | C[SiH](C)O[Si](O[SiH](C)C)(O[SiH](C)C)O[SiH](C)C [tetrakis(dimethylsiloxy)silane] | -60 °C
73 | CO[Si](OC)(OC)OC [tetramethoxysilane] | 5 °C
74 | O=C1C(c2ccccc2)=C(c2ccccc2)C(c2ccccc2)=C1c1ccccc1 [tetraphenylcyclopentadienone] | 218 °C
75 | O=C1CCC(N2C(=O)c3ccccc3C2=O)C(=O)N1 (centres undefined) [thalidomide] [listing 1 of 2 here] | 270 °C
76 | Cn1cnc2c1c(=O)[nH]c(=O)n2C [theobromine] | 357 °C
77 | Cn1c(=O)c2[nH]cnc2n(C)c1=O [theophylline] | 272 °C and 274 °C
78 | c1cscn1 [thiazole] | -33 °C
79 | O=S(Br)Br [thionyl bromide] | -52 °C
